Data as given in US6346273B1, “Process for solubilizing pharmaceutically active ingredients in water and in aqueous vehicles” (Farmigea S.p.A., priority 1997, dated 2002).

Key:
[1] = Amounts of drugs solubilized at 20° C. in water, with PVP, with PEG-GTR and with the method of the invention; assay type: physicochemical
Excerpt: In this table, the solubility of each drug in water is compared with the solubility obtainable with the complexation method (with PVP) and with the solubility obtainable with the micellar solubilization method with surfactants (with PEG-GTR). In all cases it is evident that the combined method according to the invention affords solubility increases that are largely greater than the sum of the increases obtainable with each one of the prior art methods.

[2] = co-precipitated with PVP having M.W.=50,000; cited from earlier work
[3] = PVP (M.W. = 10,000) 18.0 % w/w in water

For `CC(=O)OCC(=O)[C@@]12OC(C)(C)O[C@@H]1C[C@H]1[C@@H]3CC(C=O)=C4C=C(OCCCl)CC[C@]4(C)[C@@]3(F)[C@@H](O)C[C@@]12C` [Formocortal], the “Amt. of drug solubilized at 20° C. (% w/w)” value ([1]; PEG-GTR 5.0 % w/w in water) was 0.0252 % w/w, the “Amt. of drug solubilized at 20° C. (% w/w)” value [1, 3] was 0.0022 % w/w and the “Amt. of drug solubilized at 20° C. (% w/w)” value ([1]; PVP (M.W. = 10,000) + PEG-GTR (18.0 + 5.0 % w/w), method of the invention) was 0.10 % w/w. The “Amt. of drug solubilized at 20° C. (% w/w)” value ([1]; water, solubilizing agent none) was 0.008 % w/w.

For `C=C[C@@]1(C)CC(=O)[C@]2(O)[C@@]3(C)[C@@H](O)CCC(C)(C)[C@@H]3[C@H](O)[C@H](OC(C)=O)[C@@]2(C)O1` [Forskolin], the “Amt. of drug solubilized at 20° C. (% w/w)” value ([1]; PEG-GTR 10.0 % w/w in water) was 0.05 % w/w, the “Amt. of drug solubilized at 20° C. (% w/w)” value ([1]; PVP (M.W. = 10,000) 30.0 % w/w in water) was 0.03 % w/w and the “Amt. of drug solubilized at 20° C. (% w/w)” value ([1]; PVP (M.W. = 10,000) + PEG-GTR (30.0 + 10.0 % w/w), method of the invention) was 0.20 % w/w. The “Amt. of drug solubilized at 20° C. (% w/w)” value ([1]; water, solubilizing agent none) was 0.0029 % w/w.

With `CN1C(C(=O)Nc2ccccn2)=C(O)c2ccccc2S1(=O)=O` [Piroxicam] the “Amt. of drug solubilized at 20° C. (% w/w)” value ([1]; PEG-GTR 2.5 % w/w in water) was 0.13 % w/w, the “Amt. of drug solubilized at 20° C. (% w/w)” value ([1]; PVP (M.W. = 10,000) 20.0 % w/w in water) was 0.081 % w/w and the “Amt. of drug solubilized at 20° C. (% w/w)” value ([1]; PVP (M.W. = 10,000) + PEG-GTR (20.0 + 2.5 % w/w), method of the invention) was 0.50 % w/w. The “Amt. of drug solubilized at 20° C. (% w/w)” value ([1]; water, solubilizing agent none) was 0.0017 % w/w.

With `CN1CCN(c2c(F)cc3c(=O)c(C(=O)O)cn4c3c2SCC4)CC1` [Rufloxacin] the “Amt. of drug solubilized at 20° C. (% w/w)” value ([1]; PEG-GTR 1.0 % w/w in water) was 0.03 % w/w, the “Amt. of drug solubilized at 20° C. (% w/w)” value ([1]; PVP (M.W. = 44,000-54,000) 15.0 % w/w in water) was 0.24 % w/w and the “Amt. of drug solubilized at 20° C. (% w/w)” value ([1]; PVP (M.W. = 44,000-54,000) + PEG-GTR (15.0 + 1.0 % w/w), method of the invention) was 0.30 % w/w. For the same compound, the “Amt. of drug solubilized at 20° C. (% w/w)” value ([1]; water, solubilizing agent none) was 0.029 % w/w.

For `C[C@@H]1O[C@@H](OC[C@H]2O[C@@H](Oc3c(-c4ccc(O)c(O)c4)oc4cc(O)cc(O)c4c3=O)[C@H](O)[C@@H](O)[C@@H]2O)[C@H](O)[C@H](O)[C@H]1O` [Rutin], the “Amt. of drug solubilized at 20° C. (% w/w)” value ([1]; PEG-GTR 10.0 % w/w in water) was 0.074 % w/w, the “Amt. of drug solubilized at 20° C. (% w/w)” value ([1]; PVP (M.W. = 2000-3000) 30.0 % w/w in water) was 0.37 % w/w and the “Amt. of drug solubilized at 20° C. (% w/w)” value ([1]; PVP (M.W. = 2000-3000) + PEG-GTR (30.0 + 10.0 % w/w), method of the invention) was 1.0 % w/w. For the same compound, the “Amt. of drug solubilized at 20° C. (% w/w)” value ([1]; water, solubilizing agent none) was 0.0125 % w/w.

With `COc1ccc2c(C(=S)N(C)CC(=O)O)cccc2c1C(F)(F)F` [Tolrestat] the “Amt. of drug solubilized at 20° C. (% w/w)” value ([1]; PEG-GTR 6.0 % w/w in water) was 0.60 % w/w, the “Amt. of drug solubilized at 20° C. (% w/w)” value ([1]; PEG-GTR 8.0 % w/w in water) was 0.80 % w/w and the “Amt. of drug solubilized at 20° C. (% w/w)” value ([1]; PEG-GTR 10.0 % w/w in water) was 1.20 % w/w. The “Amt. of drug solubilized at 20° C. (% w/w)” value ([1]; PVP (M.W. 10,000) + PEG-GTR (18.0 + 8.0 % w/w), method of the invention) was 2.0 % w/w, the “Amt. of drug solubilized at 20° C. (% w/w)” value [1, 3] was 0.05 % w/w and the “Amt. of drug solubilized at 20° C. (% w/w)” value ([1]; PVP (M.W. = 10,000) + PEG-GTR (18.0 + 6.0 % w/w), method of the invention) was 1.50 % w/w. The “Amt. of drug solubilized at 20° C. (% w/w)” value ([1]; PVP (M.W. = 10,000) + PEG-GTR (18.0 + 10.0 % w/w), method of the invention) was 3.0 % w/w, the solubility in water ([1]; at 20° C.) was 0.75 mg/100 g of water and the “solubility when treated with complexation with PVP” value ([1]; complexation with PVP) was 0.05 % (w/w). For the same compound, the “solubility by means of surface-active agents” value ([1]; optimized choice of surfactant and amounts) was ~1.2 % (w/w), the original solubility ([1]; water, no solubilization technique) was 0.00075 % (w/w) and the “Amt. of drug solubilized at 20° C. (% w/w)” value ([1]; water, solubilizing agent none) was 0.00075 % w/w.

For `O=C1NC(=O)C(c2ccccc2)(c2ccccc2)N1` [phenytoin], the solutions stability [2] is listed as “maximum of two years”.
